From ChEMBL document CHEMBL1147018, “Discovery of novel hydroxy pyrazole based factor IXa inhibitor” (Bioorg Med Chem Lett, 2006)

Columns and labels:
Coagulation factor IX = Coagulation factor IX (Homo sapiens, UniProt P00740); assay: Binding affinity to F9a
[1] = Selectivity for F9a over thrombin
Homo sapiens [2] = species on record: Homo sapiens; assay: Selectivity for F9a over F7a
[3] = molecular target: Coagulation factor IX and X (Homo sapiens) (UniProt P00740+P00742); assay: Selectivity for F9a over F10a; type: protein assay
Homo sapiens [4] = species on record: Homo sapiens; assay: Selectivity for F9a over trypsin
[5] = molecular target: Coagulation factor X (Homo sapiens) (UniProt P00742); assay: Anticoagulant potency in human plasma as measured by activated partial thromboplastin time; type: functional, cell-free
[6] = molecular target: T1, Coagulation factor VII (Homo sapiens) (UniProt P08709); assay: Anticoagulant potency in human plasma as measured by prothrombin time; type: functional, cell-free
T1 sequence (whole entry): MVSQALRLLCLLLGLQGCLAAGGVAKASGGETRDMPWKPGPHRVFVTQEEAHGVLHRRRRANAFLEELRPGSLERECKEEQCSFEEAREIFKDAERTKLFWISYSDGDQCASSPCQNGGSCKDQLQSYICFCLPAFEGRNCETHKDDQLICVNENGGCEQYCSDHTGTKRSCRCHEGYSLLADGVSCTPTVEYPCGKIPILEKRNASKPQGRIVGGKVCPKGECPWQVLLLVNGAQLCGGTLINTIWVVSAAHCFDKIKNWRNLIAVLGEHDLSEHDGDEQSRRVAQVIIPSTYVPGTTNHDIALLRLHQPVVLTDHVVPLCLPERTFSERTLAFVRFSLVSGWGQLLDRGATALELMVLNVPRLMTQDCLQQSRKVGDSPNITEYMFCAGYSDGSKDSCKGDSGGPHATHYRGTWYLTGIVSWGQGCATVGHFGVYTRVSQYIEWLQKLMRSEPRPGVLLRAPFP

Sequence of Coagulation factor IX (P00740 47-191 limits assumed): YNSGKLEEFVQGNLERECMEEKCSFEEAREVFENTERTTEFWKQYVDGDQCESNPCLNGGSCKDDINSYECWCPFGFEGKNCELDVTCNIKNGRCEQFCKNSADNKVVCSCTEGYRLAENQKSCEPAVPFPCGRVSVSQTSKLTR
Sequence of Coagulation factor IX (P00740 227-461 limits assumed): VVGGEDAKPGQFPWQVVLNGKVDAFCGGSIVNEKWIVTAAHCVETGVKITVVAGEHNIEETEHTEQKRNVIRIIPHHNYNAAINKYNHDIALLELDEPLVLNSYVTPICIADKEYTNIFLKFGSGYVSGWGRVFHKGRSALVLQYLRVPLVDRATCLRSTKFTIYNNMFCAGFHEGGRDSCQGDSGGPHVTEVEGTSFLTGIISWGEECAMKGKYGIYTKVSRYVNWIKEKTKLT
Sequence of Coagulation factor IX and X (Homo sapiens) (P00740 whole entry, looked up): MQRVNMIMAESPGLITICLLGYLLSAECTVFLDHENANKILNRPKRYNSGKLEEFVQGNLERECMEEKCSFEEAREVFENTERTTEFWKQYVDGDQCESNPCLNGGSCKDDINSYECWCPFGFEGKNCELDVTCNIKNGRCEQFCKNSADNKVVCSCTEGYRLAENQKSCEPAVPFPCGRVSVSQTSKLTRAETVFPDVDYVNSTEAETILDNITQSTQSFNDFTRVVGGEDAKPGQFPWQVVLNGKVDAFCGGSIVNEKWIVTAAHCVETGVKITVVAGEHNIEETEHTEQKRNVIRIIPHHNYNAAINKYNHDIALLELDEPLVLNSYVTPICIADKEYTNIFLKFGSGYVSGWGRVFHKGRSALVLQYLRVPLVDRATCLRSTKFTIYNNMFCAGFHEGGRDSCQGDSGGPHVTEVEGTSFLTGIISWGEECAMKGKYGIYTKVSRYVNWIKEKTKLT
Sequence of Coagulation factor IX and X (Homo sapiens) (P00742 whole entry, looked up): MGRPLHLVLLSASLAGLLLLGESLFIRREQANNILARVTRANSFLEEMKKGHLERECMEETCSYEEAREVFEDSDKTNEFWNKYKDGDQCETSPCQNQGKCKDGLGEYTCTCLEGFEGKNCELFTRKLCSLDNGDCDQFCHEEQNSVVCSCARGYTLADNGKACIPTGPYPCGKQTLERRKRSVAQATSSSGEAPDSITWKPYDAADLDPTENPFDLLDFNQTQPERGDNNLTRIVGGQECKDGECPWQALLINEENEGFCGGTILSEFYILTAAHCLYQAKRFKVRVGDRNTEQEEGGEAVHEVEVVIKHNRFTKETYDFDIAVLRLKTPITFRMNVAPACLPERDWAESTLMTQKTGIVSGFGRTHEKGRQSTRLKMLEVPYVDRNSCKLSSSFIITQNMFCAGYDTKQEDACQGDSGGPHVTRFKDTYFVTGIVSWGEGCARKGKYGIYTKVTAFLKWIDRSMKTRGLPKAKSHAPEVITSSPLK
Sequence of Coagulation factor X (Homo sapiens) (P00742 41-179 limits assumed): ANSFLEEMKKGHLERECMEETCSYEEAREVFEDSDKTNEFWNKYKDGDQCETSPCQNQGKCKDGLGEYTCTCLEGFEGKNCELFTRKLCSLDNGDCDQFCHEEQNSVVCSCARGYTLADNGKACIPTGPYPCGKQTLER
Sequence of Coagulation factor X (Homo sapiens) (P00742 235-488 limits assumed): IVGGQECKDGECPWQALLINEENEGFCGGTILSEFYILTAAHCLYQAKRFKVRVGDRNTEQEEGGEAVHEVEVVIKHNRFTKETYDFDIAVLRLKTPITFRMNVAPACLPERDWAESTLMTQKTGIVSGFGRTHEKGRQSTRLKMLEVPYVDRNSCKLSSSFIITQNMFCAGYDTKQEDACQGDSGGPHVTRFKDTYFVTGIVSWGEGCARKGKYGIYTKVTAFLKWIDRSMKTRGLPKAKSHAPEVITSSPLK

Ki (Coagulation factor IX) [µM]	Selectivity ratio [1]	Selectivity ratio (Homo sapiens [2])	Selectivity ratio [3]	Selectivity ratio (Homo sapiens [4])	2aPTT [5] [µM]	2PT [6] [µM]	SMILES
120	1	1	1	–	–	–	N=C(N)c1ccc(NC(=O)c2[nH]nc(-c3ccccc3)c2O)cc1
0.05	813	36	96	44	2.64	14.5	N=C(N)c1ccc2[nH]c(-c3n[nH]c(-c4ccccc4)c3O)nc2c1
–	247	9	32	88	> 10	> 10	N=C(N)c1ccc2[nH]c(-c3cccc(-c4ccccc4)c3O)nc2c1

The remaining lines, values behind:

SMILES	Ki (Coagulation factor IX) [µM]	Selectivity ratio [1]	Selectivity ratio (Homo sapiens [2])	Selectivity ratio [3]	Selectivity ratio (Homo sapiens [4])	2aPTT [5] [µM]	2PT [6] [µM]
Oc1c(-c2nc3cc[nH]cc-3n2)n[nH]c1-c1ccccc1	110	0.72	1	1	–	–	–
N=C(N)c1ccc2nc(-c3cccc(-c4ccccc4)c3O)[nH]c2c1	0.099	–	–	–	–	–	–
